Our source for the IC50 and EC50 values is patent publication US11667652B2, “MCL1 inhibitors” (Gilead Sciences, Inc., priority 2019, dated 2023).

pEC50, pIC50: −log10 of the molar value. Read-outs that look alike come from different tables or passages of the source.

The target of one assay is MCL1/Bim (Homo sapiens (Human), UniProt Q07820). The assay is described as follows: MCL1/Bim Binding AlphaLISA Assay. Particulars: recombinant human 6xHis-MCL1 (171-327), biotinylated Bim peptide (51-76). In a few lines:
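AlphaLISA with 0.0625 nM human 6×His-MCL1 (171-327) and 0.0625 nM biotinylated Bim (51-76) peptide in 20 mM Hepes pH 7.5, 150 mM NaCl, 0.002% Brij 35, 1 mM DTT, 0.01% BSA. Compound preincubated with MCL1 1 h, Bim added 2 h, then acceptor and donor beads 1 h each; % inhibition versus DMSO and no-protein/peptide controls.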
(Bead proximity is the source of the signal in Alpha formats.)

The next assay concerns SKBR3 cells. The assay is described as follows: SKBR3 Cell Viability Assay. Type of assay: cell-based. Particulars: CellTiter Glo, read-out: MCL1 CV SKBR3 EC50. In a few lines: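 SKBR3 cells (6,000/well, McCoy's 5A + 10% FBS) were added onto pre-spotted serial compound dilutions and incubated 72 h at 37° C, 5% CO2. Viability was read by CellTiter-Glo luminescence, with % inhibition normalised to DMSO (negative) and 10 μM puromycin (positive).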
On the technique in general: Cellular ATP, detected with luciferase, serves as a proxy for viable cell number.

[1] abbreviates: Homo sapiens, SK-BR-3, 72 hours.

Sequence of MCL1/Bim (Q07820 171-327): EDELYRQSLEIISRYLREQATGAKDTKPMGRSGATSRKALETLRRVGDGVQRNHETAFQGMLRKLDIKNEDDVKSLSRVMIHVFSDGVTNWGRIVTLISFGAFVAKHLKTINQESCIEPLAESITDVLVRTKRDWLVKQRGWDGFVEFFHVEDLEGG

For orientation: pIC50 means −log10 of the IC50, conventionally taken in molar units. As usually defined, the pEC50 is −log10 of the EC50, conventionally taken in molar units. On to `CO[C@H]1/C=C/CCC[S@@](=O)(NC(=O)c2cc3n(c2)CCOC3)=NC(=O)c2ccc3c(c2)N(C[C@@H]2CC[C@H]21)C[C@]1(CO3)SCCc2cc(Cl)ccc21` [Example 184], for which the pIC50 on MCL1/Bim was 9.59. The negative logarithm of the EC50 (pEC50) with SKBR3 cells (setting [1]) was 6.58.

For `CO[C@H]1/C=C/C[C@H](C)C[S@@](=O)(NC(=O)c2cnn(C)c2)=NC(=O)c2ccc3c(n2)N(C[C@@H]2CC[C@H]21)C[C@@]1(CCCc2cc(Cl)ccc21)CO3` [Example 185], on MCL1/Bim, the pIC50 was 10.40. In the assay on SKBR3 cells (setting [1]), the pEC50 is 7.76.

For `CO[C@H]1/C=C/C[C@H](C)C[S@@](=O)(NC(=O)c2cc3n(c2)CCOC3)=NC(=O)c2ccc3c(n2)N(C[C@@H]2CC[C@H]21)C[C@@]1(CCCc2cc(Cl)ccc21)CO3` [Example 186], the pIC50 on MCL1/Bim is 10.15. Besides, the pEC50 with SKBR3 cells (setting [1]) is 7.58.

On to `CO[C@H]1/C=C/C[C@H](C)C[S@@](=O)(NC(=O)NC2CC2)=NC(=O)c2ccc3c(n2)N(C[C@@H]2CC[C@H]21)C[C@@]1(CCCc2cc(Cl)ccc21)CO3` [Example 187], for which the pIC50 at MCL1/Bim is 10.40. Moreover, in the assay on SKBR3 cells (setting [1]), the pEC50 is 7.32.

As to `CO[C@H]1/C=C/C[C@H](C)C[S@@](=O)(NC(=O)[C@H]2C[C@](C)(O)C2)=NC(=O)c2ccc3c(n2)N(C[C@@H]2CC[C@H]21)C[C@@]1(CCCc2cc(Cl)ccc21)CO3` [Example 189], the negative logarithm of the IC50 (pIC50) on MCL1/Bim was 10.15. In the assay with SKBR3 cells (setting [1]), the pEC50 was 7.14.

For the compound `CO[C@H]1/C=C/C[C@H](C)C[S@@](=O)(NC(=O)[C@H]2C[C@@](C)(O)C2)=NC(=O)c2ccc3c(n2)N(C[C@@H]2CC[C@H]21)C[C@@]1(CCCc2cc(Cl)ccc21)CO3` [Example 190], the pIC50 on MCL1/Bim was 9.82. For the same compound, in the assay on SKBR3 cells (setting [1]), the negative logarithm of the EC50 (pEC50) was 6.51.

As to `COc1nn(C)cc1C(=O)N[S@@]1(=O)=NC(=O)c2ccc3c(n2)N(C[C@@H]2CC[C@H]2[C@@H](OC)/C=C/C[C@H](C)C1)C[C@@]1(CCCc2cc(Cl)ccc21)CO3` [Example 191], the pIC50 at MCL1/Bim is 10.70. Further, the negative logarithm of the EC50 (pEC50) in the assay on SKBR3 cells (72 hours) was 7.44.

In the case of `COc1nn(C)cc1C(=O)N[S@@]1(=O)=NC(=O)c2ccc3c(n2)N(C[C@@H]2CC[C@H]2[C@@H](OC)/C=C\C[C@H](C)C1)C[C@@]1(CCCc2cc(Cl)ccc21)CO3` [Example 192], the pIC50 on MCL1/Bim is 10.52. Besides, the pEC50 in the assay on SKBR3 cells (72 hours) was 6.87.

In the case of `COC1CC(C(=O)N[S@@]2(=O)=NC(=O)c3ccc4c(n3)N(C[C@@H]3CC[C@H]3[C@@H](OC)/C=C/C[C@H](C)C2)C[C@@]2(CCCc3cc(Cl)ccc32)CO4)C1` (stereo partly shown) [Example 195], the pIC50 on MCL1/Bim was 10.30. For the same compound, in the assay on SKBR3 cells (setting [1]), the pEC50 is 7.62.

On to `COc1nn(C)cc1C(=O)N[S@@]1(=O)=NC(=O)c2ccc3c(n2)N(C[C@@H]2CC[C@H]2[C@@H](OC)/C=C/[C@@H](OC)[C@H](C)C1)C[C@@]1(CCCc2cc(Cl)ccc21)CO3` [Example 197], for which the negative logarithm of the IC50 (pIC50) on MCL1/Bim is 9.46. The pEC50 in the assay with SKBR3 cells (72 hours) is 6.29.

As for `COc1nn(C)cc1C(=O)N[S@@]1(=O)=NC(=O)c2ccc3c(n2)N(C[C@@H]2CC[C@H]2[C@@H](OC)/C=C/[C@H](OC)[C@H](C)C1)C[C@@]1(CCCc2cc(Cl)ccc21)CO3` [Example 198], the pIC50 at MCL1/Bim is 10.30. Besides, the pEC50 in the assay on SKBR3 cells (72 hours) is 7.65.

As to `CO[C@H]1/C=C/C[C@H](C)[C@@H](C)[S@@](=O)(NC(=O)c2cnn(C)c2)=NC(=O)c2ccc3c(n2)N(C[C@@H]2CC[C@H]21)C[C@@]1(CCCc2cc(Cl)ccc21)CO3` [Example 200], at MCL1/Bim, the pIC50 is 10.30. Further, the negative-log EC50 (pEC50) with SKBR3 cells (setting [1]) was 7.68.

Consider `CO[C@H]1/C=C/C[C@H](C)[C@@H](C)[S@@](=O)(NC(=O)c2cnn(C3COC3)c2)=NC(=O)c2ccc3c(n2)N(C[C@@H]2CC[C@H]21)C[C@@]1(CCCc2cc(Cl)ccc21)CO3` [Example 201], for which the pIC50 on MCL1/Bim was 10.00. Moreover, the pEC50 in the assay on SKBR3 cells (setting [1]) is 7.07.

As for `CO[C@H]1/C=C/C[C@H](C)[C@@H](C)[S@@](=O)(NC(=O)COC2CCOCC2)=NC(=O)c2ccc3c(n2)N(C[C@@H]2CC[C@H]21)C[C@@]1(CCCc2cc(Cl)ccc21)CO3` [Example 203], the pIC50 at MCL1/Bim is 9.92. In addition, the pEC50 in the assay on SKBR3 cells (setting [1]) is 6.81.

Turning to `CO[C@H]1/C=C/C[C@H](C)[C@@H](C)[S@@](=O)(NC(=O)c2cnn(C)c2)=NC(=O)c2ccc3c(n2)N(C[C@@H]2CC[C@H]21)C[C@]1(CO3)C[C@@H]2C[C@@H]2c2cc(Cl)ccc21` [Example 205], on MCL1/Bim, the pIC50 is 10.22. In the assay with SKBR3 cells (setting [1]), the pEC50 was 7.09.

Take `CO[C@H]1/C=C/C[C@H](C)[C@@H](C)[S@@](=O)(NC(=O)c2cc3n(c2)CCOC3)=NC(=O)c2ccc3c(n2)N(C[C@@H]2CC[C@H]21)C[C@]1(CO3)C[C@@H]2C[C@@H]2c2cc(Cl)ccc21` [Example 206]: the pIC50 at MCL1/Bim is 9.64. In addition, the pEC50 with SKBR3 cells (setting [1]) was 6.85.

For the compound `CO[C@H]1/C=C/C[C@H](C)C[S@@](=O)(NC(=O)c2cc(C(=O)N3CCOCC3)n(C)c2)=NC(=O)c2ccc3c(c2)N(C[C@@H]2CC[C@H]21)C[C@@]1(CCCc2cc(Cl)ccc21)CO3` [Example 207], the pIC50 at MCL1/Bim is 10.10. Besides, in the assay with SKBR3 cells (setting [1]), the pEC50 is 7.06.

On to `CO[C@H]1/C=C/C[C@H](C)C[S@@](=O)(NC(=O)c2cn(C)c(=O)n2C)=NC(=O)c2ccc3c(c2)N(C[C@@H]2CC[C@H]21)C[C@@]1(CCCc2cc(Cl)ccc21)CO3` [Example 208], for which the pIC50 on MCL1/Bim was 9.89. Moreover, the pEC50 in the assay with SKBR3 cells (setting [1]) was 6.85.

Regarding `CO[C@H]1/C=C/C[C@H](C)C[S@@](=O)(NC(=O)c2cn(C)nc2C#CC(C)(C)O)=NC(=O)c2ccc3c(c2)N(C[C@@H]2CC[C@H]21)C[C@@]1(CCCc2cc(Cl)ccc21)CO3` [Example 209], the pIC50 at MCL1/Bim was 10.40. Besides, the negative logarithm of the EC50 (pEC50) in the assay with SKBR3 cells (setting [1]) was 6.90.

For the compound `COCC#Cc1nn(C)cc1C(=O)N[S@@]1(=O)=NC(=O)c2ccc3c(c2)N(C[C@@H]2CC[C@H]2[C@@H](OC)/C=C/C[C@H](C)C1)C[C@@]1(CCCc2cc(Cl)ccc21)CO3` [Example 210], the pIC50 on MCL1/Bim was 10.30. In the assay on SKBR3 cells (setting [1]), the negative logarithm of the EC50 (pEC50) is 6.96.
